According to ChEMBL document CHEMBL3881527, “Multi-functional small molecules as anti-proliferative agents” (2008):
Activity calls are given as the source filed them. The calls are words filed in the database; no cut-off is given here.

Tests used:
Colon = assay: Cmax in CD1 mouse colon at 20 mg/kg, iv administered in 30% captisol as 2 mins infusion by LC/MS/MS analysis; assay type: ADME, organism-based; parameters: dose 20 mg/kg, route intravenous; conditions: in vivo
[1] = Chemical stability in diluted solution; assay type: physicochemical
[2] = Drug uptake in iv dosed Sprague-Dawley rat plasma administered in 30% captisol as 5 mins infusion; assay type: ADME, organism-based; conditions: in vivo
[3] = Solubility of the compound at pH 2 to 3; assay type: physicochemical; conditions: buffer
[4] = Antitumor activity against human A549 cells xenografted in nu/nu athymic mouse assessed as increase in tumor size at 120 mg/kg administered in 30% captisol after 24 hrs (reference value: 240%); assay type: functional
[5] = Toxicity in CD1 mouse assessed as change in body weight up to 200 mg/kg, iv administered as single dose in 30% captisol measured over 9 days; assay type: organism-based; conditions: in vivo, 216 h
[6] = Toxicity in CD1 mouse assessed as change in body weight up to 100 mg/kg, ip administered as repeated dosing in 30% captisol measured over 7 days; assay type: organism-based; conditions: in vivo, 168 h
[7] = Toxicity in Sprague-Dawley rat assessed as change in body weight up to 200 mg/kg, ip administered as single dose in 30% captisol measured over 8 days; assay type: organism-based; conditions: in vivo, 192 h
HCT-116 [8] = assay: Induction of apoptosis in human HCT116 cells assessed as increase in caspase3/7 activity after 24 hrs; assay type: functional, cell-based; conditions: HCT-116, 24 h
[9] = Cytotoxicity against human CFPAC cells assessed as growth inhibition by measuring ATP levels after 72 hrs by ATPlite assay; assay type: functional, cell-based
SK-BR-3 = assay: Induction of apoptosis in human SKBR3 cells assessed as increase in caspase3/7 activity after 24 hrs; assay type: functional, cell-based; conditions: SK-BR-3, 24 h
HPAC = assay: Antitumor activity against human HPAC cells xenografted in nu/nu athymic mouse assessed as tumor growth inhibition at 120 mg/kg, iv or ip administered in 30% captisol; assay type: functional, organism-based
NCI-H358 = assay: Antitumor activity against human NCI-H358 cells xenografted in nu/nu athymic mouse assessed as tumor growth inhibition at 15 to 60 mg/kg, iv as 2 mins infusion administered via 7 days on 7 days off and 5 days on regimen measured twice weekly during compound dosing; assay type: functional, organism-based
A-431 = assay: Antitumor activity against human A431 cells xenografted in nu/nu athymic mouse assessed as tumor growth inhibition at 6 to 48 mg/kg, ip qd administered for 21 days measured twice weekly during compound dosing; assay type: functional, organism-based
BXPC-3 = assay: Antitumor activity against human BxPC3 cells xenografted in nu/nu athymic mouse assessed as tumor growth inhibition at 10 to 40 mg/kg, iv as 2 mins infusion administered via 7 days on 7 days off and 2 days on regimen measured twice weekly during compound dosing; assay type: functional, organism-based
HCT-116 [10] = assay: Antitumor activity against human HCT116 cells xenografted in nu/nu athymic mouse assessed as tumor growth inhibition at 15 to 60 mg/kg, iv as 2 mins infusion administered via 5 days on 2 days off and 5 days on regimen measured twice weekly during compound dosing; assay type: functional, organism-based
PC-3 = assay: Antitumor activity against human PC3 cells xenografted in nu/nu athymic mouse assessed as tumor growth inhibition at 10 to 40 mg/kg, iv as 2 mins infusion administered via 7 days on 7 days off and 5 days on regimen measured twice weekly during compound dosing; assay type: functional, organism-based
NCI-H292 = assay: Antitumor activity against human NCI-H292 cells xenografted in nu/nu athymic mouse assessed as tumor growth inhibition at 15 to 60 mg/kg, iv as 2 mins infusion administered via 7 days on 7 days off and 5 days on regimen measured twice weekly during compound dosing; assay type: functional, organism-based
[11] = Solubility of the compound at pH 4 to 5; assay type: physicochemical; conditions: buffer
[12] = Solubility of the compound at pH 3 to 4; assay type: physicochemical; conditions: buffer
[13] = biological target: Serine/threonine-protein kinase B-raf (Homo sapiens, UniProt P15056); assay: Inhibition of N-terminal GST-tagged recombinant human B-Raf ([…] residues) expressed in baculovirus infected Sf21 insect cells using MEK1 as substrate preincubated for 5 mins followed by substrate addition measured after 30 mins by DELFIA
Sequence of Serine/threonine-protein kinase B-raf (P15056 whole entry, the tested form may be a part): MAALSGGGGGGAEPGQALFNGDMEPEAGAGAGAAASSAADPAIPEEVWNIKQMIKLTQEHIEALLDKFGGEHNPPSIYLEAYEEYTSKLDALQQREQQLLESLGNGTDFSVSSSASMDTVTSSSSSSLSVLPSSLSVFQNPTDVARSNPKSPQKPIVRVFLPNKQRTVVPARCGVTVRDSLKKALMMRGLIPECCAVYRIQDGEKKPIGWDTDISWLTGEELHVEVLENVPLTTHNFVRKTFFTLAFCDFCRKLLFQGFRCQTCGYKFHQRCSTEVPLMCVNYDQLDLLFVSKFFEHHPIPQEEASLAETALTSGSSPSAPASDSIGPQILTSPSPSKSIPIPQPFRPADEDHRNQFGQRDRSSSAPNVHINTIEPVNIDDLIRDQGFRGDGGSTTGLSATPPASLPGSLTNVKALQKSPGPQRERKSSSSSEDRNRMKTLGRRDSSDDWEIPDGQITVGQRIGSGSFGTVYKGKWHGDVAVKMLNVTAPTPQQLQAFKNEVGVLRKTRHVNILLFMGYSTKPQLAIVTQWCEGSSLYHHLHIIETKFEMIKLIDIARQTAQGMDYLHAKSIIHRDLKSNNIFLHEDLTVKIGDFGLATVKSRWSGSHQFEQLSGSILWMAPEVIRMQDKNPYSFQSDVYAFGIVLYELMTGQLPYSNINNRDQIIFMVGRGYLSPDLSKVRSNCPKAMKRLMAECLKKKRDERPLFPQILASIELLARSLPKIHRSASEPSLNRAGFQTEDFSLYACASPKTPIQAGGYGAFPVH

[14] = biological target: Vascular endothelial growth factor receptor 2 (Homo sapiens, UniProt P35968); assay: Inhibition of N-terminal GST-His6-thrombin cleavage site-fused human VEGFR2 (Asp805 to Val1356 residues) expressed in baculovirus expression system using biotinylated gastrin precursor at Tyr87 as substrate preincubated for 5 mins followed by substrate addition measured after 30 mins by DELFIA method
Sequence of Vascular endothelial growth factor receptor 2 (P35968 whole entry, the tested form may be a part): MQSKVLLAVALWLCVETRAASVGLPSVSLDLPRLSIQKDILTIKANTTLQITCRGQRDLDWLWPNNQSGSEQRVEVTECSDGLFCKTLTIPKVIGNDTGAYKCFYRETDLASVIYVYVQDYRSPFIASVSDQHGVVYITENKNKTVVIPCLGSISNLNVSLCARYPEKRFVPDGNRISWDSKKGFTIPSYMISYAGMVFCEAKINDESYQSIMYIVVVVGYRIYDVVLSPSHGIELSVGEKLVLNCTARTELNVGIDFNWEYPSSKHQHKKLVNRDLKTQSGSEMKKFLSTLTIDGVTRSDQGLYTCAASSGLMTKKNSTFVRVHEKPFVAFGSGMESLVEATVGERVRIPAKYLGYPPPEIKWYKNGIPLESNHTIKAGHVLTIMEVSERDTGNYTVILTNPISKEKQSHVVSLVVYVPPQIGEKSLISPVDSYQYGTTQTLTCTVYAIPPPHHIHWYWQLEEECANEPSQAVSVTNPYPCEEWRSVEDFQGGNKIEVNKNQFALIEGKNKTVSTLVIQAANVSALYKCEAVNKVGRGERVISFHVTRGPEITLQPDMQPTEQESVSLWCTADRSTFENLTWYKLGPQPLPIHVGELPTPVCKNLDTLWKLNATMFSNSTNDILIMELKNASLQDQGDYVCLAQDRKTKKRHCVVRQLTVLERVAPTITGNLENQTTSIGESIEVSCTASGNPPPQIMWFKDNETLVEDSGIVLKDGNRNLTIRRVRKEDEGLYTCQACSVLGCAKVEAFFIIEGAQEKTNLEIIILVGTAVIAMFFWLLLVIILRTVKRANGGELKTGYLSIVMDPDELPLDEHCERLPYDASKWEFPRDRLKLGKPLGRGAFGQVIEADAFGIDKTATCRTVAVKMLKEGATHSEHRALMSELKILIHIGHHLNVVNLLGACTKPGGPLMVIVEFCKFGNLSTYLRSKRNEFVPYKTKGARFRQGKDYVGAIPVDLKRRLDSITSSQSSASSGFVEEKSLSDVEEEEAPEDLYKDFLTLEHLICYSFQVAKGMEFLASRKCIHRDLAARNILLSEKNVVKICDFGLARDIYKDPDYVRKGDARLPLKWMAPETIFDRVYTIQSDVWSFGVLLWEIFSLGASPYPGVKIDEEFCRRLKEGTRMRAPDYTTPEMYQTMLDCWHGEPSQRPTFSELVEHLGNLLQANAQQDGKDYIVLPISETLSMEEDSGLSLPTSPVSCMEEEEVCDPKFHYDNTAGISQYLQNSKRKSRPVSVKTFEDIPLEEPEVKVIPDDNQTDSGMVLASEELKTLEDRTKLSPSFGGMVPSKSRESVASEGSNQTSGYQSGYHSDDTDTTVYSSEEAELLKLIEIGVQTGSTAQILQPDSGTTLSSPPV

[15] = biological target: Mast/stem cell growth factor receptor Kit (Homo sapiens, UniProt P10721); assay: Inhibition of human N-terminal GST-tagged human c-Kit (Thr544 to Val976 residues) expressed in baculovirus expression system assessed as decrease in biotinylated KDR phosphorylation at Tyr996 preincubated for 5 mins followed by substrate addition measured after 30 mins by DELFIA method
Sequence of Mast/stem cell growth factor receptor Kit (P10721 whole entry, the tested form may be a part): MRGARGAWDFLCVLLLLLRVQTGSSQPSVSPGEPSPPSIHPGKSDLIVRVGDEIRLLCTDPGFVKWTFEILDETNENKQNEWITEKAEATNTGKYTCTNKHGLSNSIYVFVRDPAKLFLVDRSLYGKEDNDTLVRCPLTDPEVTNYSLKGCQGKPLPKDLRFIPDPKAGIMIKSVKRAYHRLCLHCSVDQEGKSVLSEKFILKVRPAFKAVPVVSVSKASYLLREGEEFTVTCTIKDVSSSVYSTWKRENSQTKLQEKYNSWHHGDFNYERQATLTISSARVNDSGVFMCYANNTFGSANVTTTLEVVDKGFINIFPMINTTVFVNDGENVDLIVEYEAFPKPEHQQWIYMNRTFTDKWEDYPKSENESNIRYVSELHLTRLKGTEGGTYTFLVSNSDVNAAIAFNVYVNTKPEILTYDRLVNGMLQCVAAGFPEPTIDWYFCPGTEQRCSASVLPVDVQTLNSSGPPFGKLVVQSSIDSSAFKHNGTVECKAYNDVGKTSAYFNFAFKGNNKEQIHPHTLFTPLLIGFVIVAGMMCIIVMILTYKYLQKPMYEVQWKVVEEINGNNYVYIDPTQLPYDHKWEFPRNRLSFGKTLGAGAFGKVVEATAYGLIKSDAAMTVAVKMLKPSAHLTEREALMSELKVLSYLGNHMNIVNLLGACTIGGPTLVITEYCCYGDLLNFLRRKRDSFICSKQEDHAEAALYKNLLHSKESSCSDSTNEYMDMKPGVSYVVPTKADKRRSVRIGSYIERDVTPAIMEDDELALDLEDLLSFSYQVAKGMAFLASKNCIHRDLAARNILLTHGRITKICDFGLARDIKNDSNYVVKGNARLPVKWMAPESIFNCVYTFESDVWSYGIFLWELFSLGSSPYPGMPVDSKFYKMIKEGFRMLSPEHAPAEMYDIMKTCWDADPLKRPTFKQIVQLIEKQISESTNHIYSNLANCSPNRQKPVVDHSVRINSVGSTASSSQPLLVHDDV

[16] = biological target: Platelet-derived growth factor receptor beta (Homo sapiens, UniProt P09619); assay: Inhibition of N-terminal GST-His6-thrombin cleavage site-fused human PDGFRbeta (Arg561 to Leu1106 residues) assessed as decrease in biotinylated FLT3 phosphorylation at Tyr589 preincubated for 5 mins followed by substrate addition measured after 30 mins by DELFIA method
Sequence of Platelet-derived growth factor receptor beta (P09619 whole entry, the tested form may be a part): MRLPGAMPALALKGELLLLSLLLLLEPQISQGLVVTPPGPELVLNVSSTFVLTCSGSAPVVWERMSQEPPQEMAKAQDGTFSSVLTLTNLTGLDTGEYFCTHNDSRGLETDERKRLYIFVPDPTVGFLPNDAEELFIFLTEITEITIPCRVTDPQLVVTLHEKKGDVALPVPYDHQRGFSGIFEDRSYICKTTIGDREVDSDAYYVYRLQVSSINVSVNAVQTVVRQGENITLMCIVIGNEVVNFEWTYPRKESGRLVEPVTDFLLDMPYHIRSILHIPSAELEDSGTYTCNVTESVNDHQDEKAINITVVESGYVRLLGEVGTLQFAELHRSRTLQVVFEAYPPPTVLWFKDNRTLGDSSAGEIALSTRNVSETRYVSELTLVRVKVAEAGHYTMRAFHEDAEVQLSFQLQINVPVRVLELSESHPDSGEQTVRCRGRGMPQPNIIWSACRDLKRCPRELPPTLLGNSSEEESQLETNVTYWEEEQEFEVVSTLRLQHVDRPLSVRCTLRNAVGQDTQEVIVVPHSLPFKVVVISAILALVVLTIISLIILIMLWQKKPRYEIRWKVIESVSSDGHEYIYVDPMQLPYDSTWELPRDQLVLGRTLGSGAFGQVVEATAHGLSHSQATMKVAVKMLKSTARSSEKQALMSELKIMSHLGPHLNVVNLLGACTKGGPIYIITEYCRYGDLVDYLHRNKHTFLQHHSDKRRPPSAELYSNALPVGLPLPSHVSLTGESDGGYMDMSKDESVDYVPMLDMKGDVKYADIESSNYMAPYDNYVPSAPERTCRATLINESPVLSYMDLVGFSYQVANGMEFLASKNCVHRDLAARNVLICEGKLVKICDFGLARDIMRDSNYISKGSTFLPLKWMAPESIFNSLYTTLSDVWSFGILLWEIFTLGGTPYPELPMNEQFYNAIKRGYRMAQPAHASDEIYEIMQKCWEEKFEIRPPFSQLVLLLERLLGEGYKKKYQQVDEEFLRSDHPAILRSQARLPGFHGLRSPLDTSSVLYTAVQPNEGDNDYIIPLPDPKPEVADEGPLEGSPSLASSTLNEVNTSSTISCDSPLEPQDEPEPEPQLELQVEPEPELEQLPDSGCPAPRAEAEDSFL

Compound: C#Cc1cccc(Nc2ncnc3cc(OC)c(OCCCCCCC(=O)NO)cc23)c1.Cl
- Cmax (Colon): 8.5 µM
- Stability [1]: > 12 h
- Drug uptake [2]: Dose-dependent effect
- solubility [3]: 25 mg/mL

Compound: C#Cc1cccc(Nc2ncnc3cc(OC)c(OCCCCCCC(=O)NO)cc23)c1 [CUDC-101]
- Activity [4]: 150%
- Activity [5]: Non-Toxic
- Activity [6]: Non-Toxic
- Activity [7]: Non-Toxic
- IC50 (HCT-116 [8]): 0.17 µM
- IC50 [9]: 0.1 to 1 µM
- IC50 (SK-BR-3): 0.92 µM

Compound: C#Cc1cccc(Nc2ncnc3cc(OC)c(OCCCCCCC(=O)NO)cc23)c1
- TGI (HPAC): Active
- TGI (NCI-H358): Active
- TGI (A-431): Active
- TGI (BXPC-3): Active
- TGI (HCT-116 [10]): Active
- TGI (PC-3): Active
- TGI (NCI-H292): Active

Compound: C#Cc1cccc(Nc2ncnc3cc(OC)c(OCCCCCCC(=O)NO)cc23)c1.O=C(O)CC(O)(CC(=O)O)C(=O)O
- Stability [1]: > 12 h
- solubility [11]: 25 mg/mL

Compound: C#Cc1cccc(Nc2ncnc3cc(OC)c(OCCCCCCC(=O)NO)cc23)c1.O=C(O)C(O)C(O)C(=O)O
- solubility [12]: 60 mg/mL
- Stability [1]: > 12 h

Compound: O=C(CCCCCNC(=O)c1cc(Oc2ccc(NC(=O)Nc3ccc(Cl)c(C(F)(F)F)c3)cc2)ccn1)NO
- IC50 [13]: 1 to 10 µM
- IC50 [14]: ≤ 0.1 µM
- IC50 [15]: ≤ 0.1 µM
- IC50 [16]: 0.1 to 1 µM
